Assays:
[1] = Freeze–thaw stability of QC samples (−20 °C, three times); assay type: physicochemical, rat; details: plasma QC, freeze (−20 °C) and thaw three times
Experimental: (§1) Aliquots of 100 μL plasma samples were mixed with 10 μL I.S. samples (1 μg/mL, in MeOH), then added with 500 μL ACN, respectively, and vortexed for 5 min, centrifugated at 10,000 rpm for 10 min, the supernatants were transferred into clean vials and dried in a vacuum centrifugal concentrator at 1200 rpm, 37 °C. After that, 100 μL ACN was added and ultrasonic (frequency 40 kHz, power 250 W) extracted for 5 min to dissolve the dry residue, vortexed for 1 min and centrifugated at 10,000 rpm for 5 min, 1 μL of each final supernatant was injected into UFLC–MS/MS for analysis.
(§2) Six replicates of low, medium and high concentrations of quality control (QC) samples were used to verify the stabilities under different conditions including: place at room temperature for 8 h, freeze (− 20 °C) and thaw for three times, and store at − 20 °C for 20 days.

[2] = Long-term stability of QC samples (−20 °C for 20 days); assay type: physicochemical, rat; details: plasma QC
Experimental: as §1, §2

[3] = Pharmacokinetic study in rat plasma after oral administration of FKQJF extract (UFLC–MS/MS); assay type: in vivo, Sprague-Dawley (SD) rats; details: for AUC(0-inf) / AUC(0-t) / Cmax / half-life / MRT last / MRT inf / Tmax: Sprague-Dawley, oral FKQJF extract, single dose 3.2 g/kg, mean ± SD; for MRT last: read-out: MRT0→t; for MRT inf: read-out: MRT0→∞; for Tmax: read-out: Tmax; for shape of the plasma concentration–time curve: oral FKQJF extract 3.2 g/kg
Experimental: as §1
An 8050 UFLC–MS/MS system equipped with LC-30A binary pump, a SIL-30AC autosampler, a SPD-M30A PDA detector, a CTO-20AC column oven, and a 8050 triple quadrupole mass spectrometer with an electrospray ionization source (ESI) was applied to detect and quantify FKQJF compounds in plasma samples. Data were acquired and processed with the software LabSolution (Ver. 5.6).
A Kinetex XB-C18 HPLC column (100 × 2.1 mm, 2.6 μm) linked with an equivalent guard column was used for chromatographic separation. The aqueous phase contained 0.2% formic acid was used as mobile phase A, and organic phase ACN as mobile phase B. The gradient elution method using in this program was: 3–5 min, 28–31% B; 5–7 min, 31–34% B; 7–9 min, 34–65% B; 9–10 min, 65–95% B; 10–11.5 min, 95% B. The flow rate of mobile phase, column temperature and autosampler temperature was 0.4 mL/min, 30 °C and 4 °C, respectively. The injection volume of each sample was set as 1 μL. The main MS spectrum parameters were set as follows: the flow rate of drying gas (N2) was 10.0 L/min; the atomized gas was 3.0 L/min and the heating gas flow rate was 10.0 L/min. The main temperatures of interface, desolvation and heat block was 300 °C, 250 °C and 400 °C, respectively. And, the interface and detector voltage were 3 kV and 1.8 kV.
Rats were divided into a blank group and a FKQJF administration group (6 rats for each), and fasted for 24 h. Each rat of the administration group was given FKQJF extract suspension at a single dose of 3.2 g FKQJF/kg body weight through oral administration in parallel. Blood samples (0.25 mL) were gathered from the orbital venous plexus of each rat, with FKQJF group gathered at 14 serial timepoints (6 rats for each) as 0.083 h, 0.16 h, 0.33 h, 0.5 h, 0.75 h, 1.0 h, 1.5 h, 2 h, 3 h, 4 h, 6 h, 8 h, 12 h and 24 h after drug administration. The blood samples were centrifugated at 6000g for 10 min to isolate plasma and stored at − 20 °C for further analysis.
Data were analyzed using the Drug and Statistics (DAS) Software version 2.0 (DAS 2.0, Mathematical Pharmacology Professional Committee of China, Shanghai, China). The non-compartmental mode was applied to obtain the following PK parameters: area under the plasma concentration–time curve from time zero to the time of last quantifiable concentration (AUC0→t) and area under the plasma concentration–time curve to time infinity (AUC0→∞), the elimination half-life (t1/2), mean retention time to last sampling time (MRT0→t) and mean retention time to infinity (MRT0→∞). The maximum plasma concentration (Cmax) and the time to maximum concentration (Tmax) were observed directly from the concentration–time (C–T) curves and measured data. All data are presented as mean ± SD.

[4] = Ordinary stability of QC samples (room temperature for 8 h); assay type: physicochemical, rat; details: plasma QC, room temperature 8 h
Experimental: as §1, §2

Row | Structure (SMILES) | Freeze–thaw stability Mean ([1]; spiked 50 ng/mL) [%] | Freeze–thaw stability Mean ([1]; spiked 250 ng/mL) [%] | Freeze–thaw stability Mean ([1]; spiked 500 ng/mL) [%] | Long-term stability Mean ([2]; spiked 50 ng/mL) [%] | Long-term stability Mean ([2]; spiked 250 ng/mL) [%] | Long-term stability Mean ([2]; spiked 500 ng/mL) [%] | AUC(0-inf) [3] [ng·h/mL] | AUC(0-t) [3] [ng·h/mL] | Cmax [3] [ng/mL] | half-life [3] [h] | MRT last [3] [h] | MRT inf [3] [h] | Tmax [3] [h] | Ordinary stability Mean ([4]; spiked 50 ng/mL) [%] | Ordinary stability Mean ([4]; spiked 250 ng/mL) [%] | Ordinary stability Mean ([4]; spiked 500 ng/mL) [%] | Freeze–thaw stability Mean ([1]; spiked 300 ng/mL) [%] | Long-term stability Mean ([2]; spiked 300 ng/mL) [%] | shape of the plasma concentration–time curve [3] | Ordinary stability Mean ([4]; spiked 300 ng/mL) [%] | other results
1 | O=C(O)c1ccccc1O [Analyte 8, salicylic acid] | 80.11 | 102.50 | 88.21 | 109.80 | 114.13 | 87.97 | 2140 ± 168 | 1800 ± 155 | 433 ± 53.1 | 2.7 ± 0.54 | 2.88 ± 0.15 | 4.31 ± 0.67 | 1.67 ± 0.29 | 95.42 | 108.42 | 103.60 | – | – | double-peaks | – | –
2 | COc1cc2c(cc1OC)-c1cc3ccc(OC)c(OC)c3c[n+]1CC2 [Analyte 11, palmatine] | – | – | – | – | – | – | 1640 ± 155 | 691 ± 93.3 | 134 ± 31.8 | 9.16 ± 2.09 | 11 ± 0.99 | 14.2 ± 8.89 | 1.67 ± 0.29 | – | – | – | – | – | – | – | Freeze–thaw stability Mean ([1]; spiked 5 ng/mL): 94.51%; Freeze–thaw stability Mean ([1]; spiked 100 ng/mL): 98.74%; Long-term stability Mean ([2]; spiked 5 ng/mL): 87.02%; Long-term stability Mean ([2]; spiked 100 ng/mL): 101.38%; Long-term stability Mean ([2]; spiked 200 ng/mL): 89.65%; Ordinary stability Mean ([4]; spiked 5 ng/mL): 92.36%; Ordinary stability Mean ([4]; spiked 100 ng/mL): 81.64%
3 | COc1ccccc1-c1cc(=O)c2c(O)cc(OC)c(OC)c2o1 [Analyte 16, panicolin] | 105.76 | 108.03 | 95.34 | 105.80 | 89.82 | 95.48 | 251 ± 97.6 | 177 ± 17.1 | 31.4 ± 6.94 | 12.6 ± 12.7 | 8.68 ± 1.17 | 20.1 ± 5.01 | 2 | 83.35 | 92.98 | 88.55 | – | – | double-peaks | – | –
4 | COc1cc(O)c2c(=O)cc(-c3ccccc3)oc2c1OC [Analyte 19, 7-O-methylwogonin] | – | – | – | – | – | – | 252 ± 62.5 | 249 ± 65.5 | 169 ± 73.5 | 1.1 ± 0.47 | 2.44 ± 0.12 | 2.55 ± 0.21 | 2 | – | – | – | 94.97 | 85.96 | – | 96.04 | Freeze–thaw stability Mean ([1]; spiked 10 ng/mL): 103.66%; Freeze–thaw stability Mean ([1]; spiked 150 ng/mL): 111.86%; Long-term stability Mean ([2]; spiked 10 ng/mL): 116.14%; Long-term stability Mean ([2]; spiked 150 ng/mL): 84.29%; Ordinary stability Mean ([4]; spiked 10 ng/mL): 96.33%; Ordinary stability Mean ([4]; spiked 150 ng/mL): 80.66%

Continued, in another order:

Row | Freeze–thaw stability Mean ([1]; spiked 50 ng/mL) [%] | Freeze–thaw stability Mean ([1]; spiked 250 ng/mL) [%] | Freeze–thaw stability Mean ([1]; spiked 500 ng/mL) [%] | Long-term stability Mean ([2]; spiked 50 ng/mL) [%] | Long-term stability Mean ([2]; spiked 250 ng/mL) [%] | Long-term stability Mean ([2]; spiked 500 ng/mL) [%] | AUC(0-inf) [3] [ng·h/mL] | AUC(0-t) [3] [ng·h/mL] | Cmax [3] [ng/mL] | half-life [3] [h] | MRT last [3] [h] | MRT inf [3] [h] | Tmax [3] [h] | Ordinary stability Mean ([4]; spiked 50 ng/mL) [%] | Ordinary stability Mean ([4]; spiked 250 ng/mL) [%] | Ordinary stability Mean ([4]; spiked 500 ng/mL) [%] | Freeze–thaw stability Mean ([1]; spiked 300 ng/mL) [%] | Long-term stability Mean ([2]; spiked 300 ng/mL) [%] | shape of the plasma concentration–time curve [3] | Ordinary stability Mean ([4]; spiked 300 ng/mL) [%] | Structure (SMILES) | other results
5 | 91.90 | 107.25 | 102.81 | 118.34 | 81.20 | 104.85 | 92.6 ± 21.4 | 80.5 ± 9.64 | 46.8 ± 6.78 | 2.2 ± 1.24 | 2.38 ± 0.24 | 3.25 ± 0.41 | 1 ± 0.5 | 108.94 | 116.00 | 84.20 | – | – | – | – | O=Cc1ccc2n1C[C@@]1(C[C@H](O)[C@@H](CO)O1)OC2 [Analyte 4, 9-epi-acortatarin A] | –
6 | – | – | – | – | – | – | 1010 ± 558 | 466 ± 51.9 | 79.8 ± 9.43 | 10.5 ± 6.63 | 9.19 ± 1 | 13.9 ± 9.49 | 0.08 | – | – | – | 102.20 | 91.27 | double-peaks | 109.93 | COc1cc(/C=C/C(=O)O)ccc1O [Analyte 6, trans-ferulic acid] | Freeze–thaw stability Mean ([1]; spiked 60 ng/mL): 115.63%; Freeze–thaw stability Mean ([1]; spiked 600 ng/mL): 88.33%; Long-term stability Mean ([2]; spiked 60 ng/mL): 83.07%; Long-term stability Mean ([2]; spiked 600 ng/mL): 102.00%; Ordinary stability Mean ([4]; spiked 60 ng/mL): 88.22%; Ordinary stability Mean ([4]; spiked 600 ng/mL): 91.44%
7 | 112.34 | 99.57 | 106.56 | 86.86 | 89.00 | 103.76 | 115 ± 15.8 | 109 ± 11.4 | 48 ± 4.41 | 1.79 ± 0.44 | 2.6 ± 0.12 | 3.37 ± 0.26 | 2 | 80.92 | 104.48 | 117.94 | – | – | double-peaks | – | COc1cc(O[C@@H]2O[C@H](CO)[C@@H](O)[C@H](O)[C@H]2O)cc(OC)c1OC [Analyte 1, 3,4,5-trimethoxyphenol-1-O-β-D-glucopyranoside] | –
8 | 84.84 | 92.61 | – | 118.09 | 104.72 | 97.81 | 550 ± 70.7 | 468 ± 48.4 | 87.7 ± 26.6 | 7.68 ± 3.01 | 9.04 ± 0.68 | 14.2 ± 3.28 | 0.17 | 93.52 | 84.19 | – | – | – | double-peaks | – | O=c1c(-c2ccc(O)cc2)coc2cc(O[C@@H]3O[C@H](CO)[C@@H](O)[C@H](O)[C@H]3O)cc(O)c12 [Analyte 7, genistin] | –
9 | – | – | – | – | – | – | 179 ± 14.3 | 161 ± 12.7 | 19.2 ± 2.48 | 5.98 ± 0.4 | 7.3 ± 0.38 | 9.82 ± 0.45 | 3.33 ± 2.31 | – | – | – | 86.68 | 90.66 | double-peaks | 117.99 | C=C1CC[C@@H]2[C@](C)(CO)CCC[C@@]2(C)[C@@H]1CCC1=CCOC1=O [Analyte 17, andrograpanin] | Freeze–thaw stability Mean ([1]; spiked 60 ng/mL): 82.73%; Freeze–thaw stability Mean ([1]; spiked 600 ng/mL): 115.83%; Long-term stability Mean ([2]; spiked 60 ng/mL): 87.43%; Long-term stability Mean ([2]; spiked 600 ng/mL): 117.51%; Ordinary stability Mean ([4]; spiked 60 ng/mL): 81.80%; Ordinary stability Mean ([4]; spiked 600 ng/mL): 89.06%
